{"source": "patent US7763588B2", "about": "“Method for increasing cognitive function and neurogenesis” (The Salk Institute for Biological Studies, priority 2003, dated 2010)", "key": {"dentate gyrus [1]": {"test_system": "dentate gyrus", "test": "Cell survival and neurogenesis in the dentate gyrus (BrdU labeling, day 38)", "type": "in vivo", "conditions": "mice that exercise; Mars 20 mg/kg or PBN 30 mg/kg daily", "method": "(§1) During the first nine days animals also received daily intraperitoneal BrdU injections (Sigma, St. Louis, Mo.); dissolved in 0.9% NaCl, filtered sterile at 0.2 μm, 50 μg/g body weight at 10 mg/ml) to label dividing cells.\n(§2) On day 10, 7 animals from each group were given an overdose of anesthetics and perfused transcardially with cold 4% paraformaldehyde in 0.1 M PBS to study the effect of the drugs on cell proliferation. […] On day 38 the remaining mice were perfused.\n(§3) To confirm neurogenesis, immunohistochemistry for BrdU was performed on a 1:6 series of free-floating 40-μm coronal sections that were pretreated for BrdU immunohistochemistry by denaturing DNA, as described previously by van Praag et al., Procl. Natl. Acad. Sci. USA 96: 13427-13431 (1999), which is incorporated herein by reference in its entirety. The antibody used was mouse anti-BrdU (Boehringer Mannheim, Indianapolis, Ind.) 1:400. To visualize the BrdU-labeled cells, staining for BrdU with the peroxidase method was used (ABC system, with biotinylated donkey anti-mouse antibodies and diaminobenzadine as chromogen; Vector Laboratories, Burlingame, Calif.). Cells were counted at 40× using an upright brightfield microscope (Olympus).\nWe are currently processing the tissue of the animals that survived for 38 days to assess the effects of the drugs and exercise on the number of newborn neurons. […]"}, "female C57BL/6 mice [2]": {"test_system": "female C57BL/6 mice", "test": "Morris water maze spatial learning", "type": "in vivo", "conditions": "Mars 20 mg/kg or PBN 30 mg/kg daily", "method": "(§4) Ninety-six female C57BL/6 mice, ten weeks old were purchased from Harlan SD and housed individually with a reversed day/night cycle: lights on at 10 p.m. and off at 10 a.m. The mice were divided into six groups of 16 mice each: Control/Saline (CS) Control/PBN (CP), Control/Mars (CM), Runner/Saline (RS), Runner/PBN (RP) and Runner/Mars (RM). Runners were moved into a cage with a running wheel (Lafayette Instruments) for 4 hours per day, from 10 a.m. to 2 p.m. The mice received daily injections of saline, N-tert-Butyl-phenylnitrone (PBN, 30 mg/kg) or 3′- and 4′-methylated epicatechin 1:1 (Mars, 20 mg/kg).\nas §2\nTo assess spatial learning the mice were trained with two trials per day over eight days on the Morris water maze as described by Morris, J. Neurosci. Methods 11: 47-60 (1984), which is incorporated herein by reference in its entirety. The platform was hidden 1 cm below the surface of water, made opaque with white non-toxic paint. The starting points were changed every day. Each trial lasted either until the mouse had found the platform or for a maximum of 40 seconds. All mice were allowed to rest on the platform for 10 seconds at the end of each trial. The latency to the platform, length of swim path and swim speed was recorded semi-automatically by a video tracking system (Ethovision, Noldus).\nTo assess memory function mice were trained in the water maze for 8 days with 2 trials per day between days 29-36 of the experiment. […] However, when measuring swim speed, there was also a significant difference between the groups (F(5,47)=3.37, p<0.01), raising the possibility that the RM and RP animals performed better due enhanced motor rather than cognitive skills.\nTo further investigate whether the RM and RP had improved learning, the swimming distance was analyzed for all trials. There was no significant difference between the groups in an overall analysis (F(5,47)=1.55, p=0.19)."}, "female C57BL/6 mice [3]": {"test_system": "female C57BL/6 mice", "test": "Running wheel activity (wheel revolutions)", "type": "in vivo", "conditions": "runners, wheel about 4 hours daily after injection; Mars 20 mg/kg or PBN 30 mg/kg daily; compared with Runner/Saline", "method": "as §4, with “mg/kg). Mice in the running groups were placed in cages with wheels after drug injection for about 4 hours daily.” for “mg/kg).”"}, "dentate gyrus [4]": {"test_system": "dentate gyrus", "test": "BrdU-positive cell proliferation in the dentate gyrus (day 10)", "type": "in vivo, mice", "conditions": "runners, Mars 20 mg/kg or PBN 30 mg/kg daily", "method": "as §1, §2\nas §3, with “To visualize the BrdU-labeled cells, staining for BrdU with the peroxidase method was used (ABC system, with biotinylated donkey anti-mouse antibodies and diaminobenzadine as chromogen; Vector Laboratories, Burlingame, Calif.).” left out\nBrdU-positive cells were analyzed in mice that were allowed to survive for the first 10 days of the experiment. At this time point cell proliferation, but not neurogenesis can be assessed, since it takes about a month for a newly born cell to become a neuron (van Praag et al., Nature 415: 1030-1034 (2002), which is incorporated herein by reference in its entirety)."}}, "note": "“Also recorded” adds a separate entry of the source."}
{"smiles": "CC(C)(C)[N+]([O-])=Cc1ccccc1", "note": "[PBN, N-tert-Butyl-phenylnitrone]", "values": [{"measurement": "neurogenesis", "setting": "dentate gyrus [1]", "result": "enhances neurogenesis"}, {"measurement": "swim speed", "setting": "female C57BL/6 mice [2]; controls (no running wheel)", "result": "no difference between the runners and CP; also recorded: significantly faster than CM"}, {"measurement": "spatial memory performance / learning", "setting": "female C57BL/6 mice [2]; mice that exercise", "result": "enhances spatial memory performance; also recorded: enhanced learning"}, {"measurement": "latency to the platform, analysis of variance per day", "setting": "female C57BL/6 mice [2]; runners, 8 days of testing", "result": "significantly shorter latencies from day 6 onwards"}, {"measurement": "swim speed", "setting": "female C57BL/6 mice [2]; runners", "result": "swam faster than CS and CM animals"}, {"measurement": "number of wheel revolutions", "setting": "female C57BL/6 mice [3]", "result": "no difference between RS and RP"}, {"measurement": "average number of BrdU-labeled cells per section (cell proliferation / cell genesis)", "setting": "dentate gyrus [4]", "result": "the greatest increase; also recorded: more cell genesis in these animals than in all the other groups"}]}
